Results taken from PMC2614347, “A Novel Peptide Enhances Therapeutic Efficacy of Liposomal Anti-Cancer Drugs in Mice Models of Human Lung Cancer” (PLoS ONE, 2009).
Ends that are not written are not given here.

Legend:
CL1-5-derived tumors = assay: In vivo homing and tissue distribution of phages; parameters: species or system SCID mice
Protocol: SCID mice were injected subcutaneously (s.c.) in the dorsolateral flank with 1×10^7 human NSCLC cells. The mice bearing size-matched lung cancer xenografts (approximately 500 mm^3) were injected i.v. with 10^9 pfu of the targeting or control phage. After perfusion, xenograft tumors and mouse organs were removed and homogenized. The phages bound to each tissue sample were recovered through the addition of ER2738 bacteria and titered on IPTG/X-Gal agar plates. In the peptide competitive inhibition experiments, the phages were injected along with 100 µg synthetic targeting peptide, control peptide or mutant peptide. The organs and tumor masses were fixed in Bouin's solution (Sigma, MO, USA). After fixation, the samples were embedded in paraffin blocks. The paraffin sections were deparaffinized, rehydrated, and subjected to immunostaining using the mouse M13 mAb as described above.

CL1-5 cells [1] = assay: Phage binding to cells, immunohistochemical staining; parameters: species or system human; details: immunohistochemistry, anti-M13 mAb
Protocol: (§1) Cells were plated and grown to about 80% confluence on cover slips. The cover slips were treated with 3% hydrogen peroxide plus 0.1% NaN3 to block endogenous peroxidase activity, and then incubated with phages. After the cover slips had been washed and fixed with 3% paraformaldehyde, they were incubated with HRP-labeled mouse anti-M13 mAb and treated with peroxidase substrate. For the peptide binding assays, 30 µg/ml FITC-labeled SP5-2 or control peptide was added on each cover slip and incubated. They were counterstained with Hoechst 33258 (Molecular Probes, OR, USA) and mounted with a mounting solution (Vector, CA, USA). The cells were then examined under a Leica universal microscope. The images were merged using the SimplePCI software (C-IMAGING, PA, USA).

PC13 cells [2] = assay: as above; parameters: species or system human; details: immunohistochemistry, anti-M13 mAb
Protocol: as §1

[3] = test system: nasopharyngeal carcinoma cells (NPC-TW01); assay: as above; parameters: species or system human; details: immunohistochemistry, anti-M13 mAb
Protocol: as §1

[4] = test system: normal epithelial cells (NNM) from nasal mucosa; assay: as above; parameters: species or system human; details: immunohistochemistry, anti-M13 mAb
Protocol: as §1

oral cancer (SAS) cells = assay: as above; parameters: species or system human; details: immunohistochemistry, anti-M13 mAb
Protocol: as §1

NPC-TW01 cells = assay: Phage binding, immunofluorescent staining; parameters: species or system human
CL1-5 cells [5] = assay: Phage binding and peptide competition, flow cytometry; parameters: species or system human; details: fraction of cells gated for positive binding
Protocol: (§2) The lung and other cancer cell lines were collected using PBS containing 50 mM EDTA, then incubated with phages or FITC-labeled peptides. For the peptide competitive inhibition assay, phages were mixed with different concentrations of the synthetic peptide and the mixture was incubated with the cells. After washing, the phage-bound cells were incubated with anti-M13 mAbs and then treated with FITC-conjugated goat anti-mouse IgG antibody. Cells were washed and analyzed with a flow cytometer (Becton Dickinson)
(§3) Fig. S2. The binding activity of PC5-2 to NSCLC cells was analyzed by flow cytometry. The samples included cells only (a, green), control phage (b, red), and PC5-2 (blue). The percentages indicate the fraction of cells gated for positive binding (c).

NNM cells = assay: Phage binding, flow cytometry; parameters: species or system human
Protocol: as §2, §3

SAS cells = assay: Phage binding, flow cytometry; parameters: species or system human
Protocol: as §2, §3

[6] = test system: surgical specimens of human lung cancer (pulmonary adenocarcinoma); assay: Binding of phages and synthetic peptides to surgical specimens of lung cancer, immunohistochemistry
Protocol: For localization of peptide binding on lung cancer tissues, frozen sections of NSCLC tissues were prepared and incubated with phage clones or biotin-labeled peptides. For the peptide competitive inhibition assay, phages were mixed with the synthetic targeting or mutant peptide. The slides were subjected to routine immunohistochemical staining, [30]. All surgical specimens were obtained from the tissue bank of National Taiwan University Hospital (NTUH) with approval from the Institutional Review Board in NTUH (IRB9461702021).

CL1-5 cells [7] = test system: CL1-5 cells
Protocol: (§4) FITC-labeled SP5-2 binding to NSCLC cells was analyzed by flow cytometry.

PC13 cells [8] = test system: PC13 cells
Protocol: as §4

CL1-5-derived xenografts = assay: Ligand-targeted therapy of lung cancer xenografts; assay type: in vivo, SCID mice; details: doxorubicin 1 mg/kg i.v. twice a week, eight injections; n = 6
Protocol: Mice 4–6 weeks of age were injected s.c. in the dorsolateral flank with human NSCLC cells. […] Mouse body weights and tumor sizes were measured twice a week. Tumor volumes were calculated using the equation: length×(width)^2×0.52. Animal care was carried out in accordance with guidelines of Academia Sinica, Taiwan.

H460-derived xenografts = assay: Ligand-targeted therapy of lung cancer xenografts; assay type: in vivo, SCID mice; details: doxorubicin 1 mg/kg i.v. twice a week, eight injections
[9] = Pharmacokinetic and biodistribution study of doxorubicin formulations; assay type: in vivo, SCID mice; details: 2 mg/kg i.v., n = 3 per time point
Protocol: At selected time points, three mice in each group were anaesthetized and sacrificed. Blood samples were collected through submaxillary punctures, and plasma samples were prepared. After perfusion, xenograft tumors and mouse organs were removed and homogenized.

NSCLC xenografts = assay: Doxorubicin autofluorescence microscopy of tumor sections; assay type: in vivo, SCID mice; details: fluorescence microscope; 1, 4 and 24 hours post-injection
From the text: Tissue sections were imaged with a FLUAR 10×/0.50 NA lens and captured with a Roper Scientific CoolSnap HQ CCD camera. All images were captured in 8-bit signal depth and subsequently pseudo-colored.

Protocol for A549 cells: as §4
Protocol for H23 cells: as §4
Protocol for H460 cells: as §4

DMPKQLLAPWYY [PC5-4, phage clone displaying […]]
Recovery of PC5-4 phage from tumor versus control organs (CL1-5-derived tumors; i.v., recovered after perfusion, SCID mice bearing NSCLC xenografts (Fig. S4)): higher than from control organs

TDSILRSYDWTY [PC5-2]
Binding of phage to CL1-5 cells (CL1-5 cells [1]): bound specifically | Binding of phage to PC13 cells (PC13 cells [2]): bound specifically | Binding of phage to NPC-TW01 cells [3]: bound neither | Binding of phage to NNM cells [4]: nor to normal epithelial cells | Binding of phage to SAS cells (oral cancer (SAS) cells): bound neither | Binding of phage to NPC-TW01 cells (NPC-TW01 cells): did not bind | CL1-5 cells bound by phage (CL1-5 cells [5]): 42.6% | Binding of phage to NNM cells (NNM cells): did not bind | Binding of phage to SAS cells (SAS cells): did not bind | Recognition of tumor cells of NSCLC surgical specimens ([6]; frozen sections): recognized | Reaction area, HLC 1 ([6]; human lung cancer surgical specimen HLC 1): +++ (>50%) | Reaction area, HLC 2 ([6]; human lung cancer surgical specimen HLC 2): +++ (>50%) | Reaction area, HLC 3 ([6]; human lung cancer surgical specimen HLC 3): - (0%) | Reaction area, HLC 4 ([6]; human lung cancer surgical specimen HLC 4): + (<20%) | Reaction area, HLC 5 ([6]; human lung cancer surgical specimen HLC 5): +++ (>50%) | Reaction area, HLC 6 ([6]; human lung cancer surgical specimen HLC 6): ++ (50~20%) | Reaction area, HLC 7 ([6]; human lung cancer surgical specimen HLC 7): ++ (50~20%) | Reaction area, HLC 8 ([6]; human lung cancer surgical specimen HLC 8): ++ (50~20%) | Reaction area, HLC 9 ([6]; human lung cancer surgical specimen HLC 9): + (<20%) | Reaction area, HLC 10 ([6]; human lung cancer surgical specimen HLC 10): - (0%) | Reaction area, HLC 11 ([6]; human lung cancer surgical specimen HLC 11): ++ (50~20%) | Reaction area, HLC 12 ([6]; human lung cancer surgical specimen HLC 12): ++ (50~20%) | Reaction area, HLC 13 ([6]; human lung cancer surgical specimen HLC 13): + (<20%) | Reaction area, HLC 14 ([6]; human lung cancer surgical specimen HLC 14): - (0%) | Reaction area, HLC 15 ([6]; human lung cancer surgical specimen HLC 15): +++ (>50%) | Reaction area, HLC 16 ([6]; human lung cancer surgical specimen HLC 16): - (0%) | Reaction area, HLC 17 ([6]; human lung cancer surgical specimen HLC 17): - (0%) | Reaction area, HLC 18 ([6]; human lung cancer surgical specimen HLC 18): ++ (50~20%) | Reaction area, HLC 19 ([6]; human lung cancer surgical specimen HLC 19): +++ (>50%) | Reaction area, HLC 20 ([6]; human lung cancer surgical specimen HLC 20): +++ (>50%) | Reaction area, HLC 21 ([6]; human lung cancer surgical specimen HLC 21): ++ (50~20%) | Reaction area, HLC 22 ([6]; human lung cancer surgical specimen HLC 22): - (0%) | Reaction area, HLC 23 ([6]; human lung cancer surgical specimen HLC 23): - (0%) | Reaction area, HLC 24 ([6]; human lung cancer surgical specimen HLC 24): ++ (50~20%) | Reaction area, HLC 25 ([6]; human lung cancer surgical specimen HLC 25): +++ (>50%) | Reaction area, HLC 26 ([6]; human lung cancer surgical specimen HLC 26): +++ (>50%) | Reaction area, HLC 27 ([6]; human lung cancer surgical specimen HLC 27): + (<20%) | Reaction area, HLC 28 ([6]; human lung cancer surgical specimen HLC 28): ++ (50~20%) | Reaction area, HLC 29 ([6]; human lung cancer surgical specimen HLC 29): - (0%) | Reaction area, HLC 30 ([6]; human lung cancer surgical specimen HLC 30): ++ (50~20%) | Reaction area, HLC 31 ([6]; human lung cancer surgical specimen HLC 31): ++ (50~20%) | Reaction area, HLC 32 ([6]; human lung cancer surgical specimen HLC 32): - (0%) | Reaction area, HLC 33 ([6]; human lung cancer surgical specimen HLC 33): ++ (50~20%) | Reaction area, HLC 34 ([6]; human lung cancer surgical specimen HLC 34): +++ (>50%) | Reaction area, HLC 35 ([6]; human lung cancer surgical specimen HLC 35): + (<20%) | Reaction area, HLC 36 ([6]; human lung cancer surgical specimen HLC 36): ++ (50~20%) | Immunohistochemical localization of phage in normal organs after i.v. injection (CL1-5-derived tumors; brain, heart and lung tissues): no reaction product detected | Phage concentration in tumor masses relative to control organs (CL1-5-derived tumors; i.v. 10^9 pfu, recovered after perfusion, control organs brain, heart and lungs): 15 fold | Immunohistochemical localization of phage in tumor tissues after i.v. injection (CL1-5-derived tumors; tumor sections, anti-M13 mAb): localize in tumor tissues

TDSILRSYDWTY [SP5-2]
Proportion of CL1-5 cells bound by SP5-2 (CL1-5 cells [7]): 43.0% | Proportion of H460 cells bound by SP5-2 (H460 cells): 45.8% | Proportion of A549 cells bound by SP5-2 (A549 cells): 44.3% | Proportion of PC13 cells bound by SP5-2 (PC13 cells [8]): 20.1% | Proportion of H23 cells bound by SP5-2 (H23 cells): 44.0%

COc1cccc2c1C(=O)c1c(O)c3c(c(O)c1C2=O)C[C@@](O)(C(=O)CO)C[C@@H]3O[C@H]1C[C@H](N)[C@H](O)[C@H](C)O1 [FD, doxorubicin]
Tumor size smaller than that in the PBS group (CL1-5-derived xenografts): 16% | Reduction of tumor size compared with PBS group (H460-derived xenografts): 14% | Blood concentration of doxorubicin after administration ([9]; tail vein, spectrofluorometry): drops to background level within one hour | AUC0-48 h, Nuclear ([9]; nuclear doxorubicin in tumor): 3.7 μg h/g tumor | AUC0–48 hours of bioavailable doxorubicin (bound to nuclei) ([9]; tumor cell nuclei, spectrofluorometry): 3.7 µg·h/g | Areas of tumor sections with detectable doxorubicin (NSCLC xenografts): no detectable doxorubicin
